The record followed here is patent US7612208B2, “Crystalline form of the salt of 4-(3-chloro-4-(cyclopropylaminocarbonyl)aminophenoxy)-7-methoxy-6-quinolinecarboxamide or the solvate of the salt and a process for preparing the same” (Eisai R&D Management Co., Ltd., priority 2003, dated 2009).

Format in all cases: physicochemical
Series [1] is described as follows: Evaluation of solid stability (storage 2 weeks; total impurity by HPLC, water content, powder X-ray diffraction). As to conditions: for changes in water content and appearance, crystal transition: all storage conditions. The protocol: 2. Storage Conditions for the Solid Stability Test (Period: 2 Weeks) a-2. −20° C. (well closed) b-2. 25° C., light irradiation (1000 1×; shading with aluminum foil, well closed) c-2. 25° C., light irradiation (1000 1×; well closed) […]
e-2. 60° C. (well closed except the following case: slightly open in the case of a crystalline form of the acetic acid solvate of the mesylate (Form I))
3. Method for Measuring the Impurity Amount by HPLC
After storage, the sample solution was prepared by adding a mixed solvent of water and methanol (3:1) to each crystal at 0.1 mg/mL as final concentration.
Tests were conducted by the HPLC method for these sample solutions under the measurement conditions described below, and the eluted peak areas were measured to determine the total impurity amount by the relative area method (impurities of 0.05% or more were counted).
(Formula for Calculating Total Impurity Amount)
• Individual impurity amount (%)=(the peak area for the individual impurity)×100/{(the peak area for carboxamide)+(sum of the peak areas for impurities)} • Total impurity amount (%)=sum of individual impurity amounts (HPLC Measurement Conditions) • Column: Mightysil RP-18 GP (Kanto Kagaku; inner diameter 4.6 mm, column length 150 mm, particle size 3 μm) • Column temperature: constant temperature in vicinity of 40° C. • Flow rate: 1.0 mL/min • Mobile phase:
Solution B: CH3CN:H2O:HClO4=900:100:1 (v/v/v) • Gradient conditions […]
• Injection amount: 10 μL • Detection: ultraviolet absorbance photometer (wavelength: 252 nm) • Temperature of auto sampler: constant temperature in vicinity of 10° C. 4. Powder X-ray Diffraction […]
Measurement of Water Content

Series [2] is described as follows: Test for measuring dissolution rate (rotating disk method). As to conditions: 2nd fluid pH 6.8, 37° C., 50 rpm. The protocol:
The dissolution rates of the following crystals were measured under the conditions described below by the rotating disk method (see, J. H. Woods et al., J. Pharm. Soc., 54, 1068 (1955)): a crystalline form of the free carboxamide (obtained in Preparation Example 1), a crystalline form of the hydrochloride of the carboxamide (obtained in Example 1), a crystalline form of the hydrobromide of the carboxamide (obtained in Example 2), a crystalline form of the methanesulfonate (hereunder, referred to as “mesylate”) of the carboxamide (Form A) (obtained in Example 5), a crystalline form of the mesylate of the carboxamide (Form C) (obtained in Example 7) and a crystalline form of the ethanesulfonate (hereunder, referred to as “esylate”) (Form β) (obtained in Example 12). The dissolution rates were calculated based on a range in which linearity was maintained in the relation between concentration and time at the initial stage of dissolution.
(Rotating Disk Method Conditions)
• Solvent: “2nd fluid” (pH 6.8, 500 mL) as described in Japanese Pharmacopoeia 14th Edition, General Tests (disintegration test) • Temperature: 37° C. • Disk rotation speed: 50 rpm • Area of powder contacting with solvent on disk: 1 cm^2 • Sampling amount: approx. 1 mL (HPLC Conditions) • Column: Cadenza CD-18 (Imtakt Corporation; inner diameter 4.6 mm, Column length 100 mm, particle size 3 μm) • Column temperature: 40° C. • Flow rate: 1.0 mL/min • Mobile phase:
Concentration of solution B: 20% • Injection amount: 100 μL • Detection: ultraviolet absorbance photometer (wavelength: 252 nm) • Temperature of auto sampler: 25° C. [Results]

The nature of series [3]: Evaluation of hygroscopicity (storage 1 week; water content, powder X-ray diffraction). As to conditions: for change in appearance and crystal transition / change of water content / hygroscopicity: 25° C., relative humidity 75% or 93%; for crystal form: powder X-ray diffraction. As for the experimental part:
The hygroscopicity and solid stability of a crystalline form of the mesylate of the carboxamide (Form A) (obtained in Example 5), a crystalline form of the mesylate of the carboxamide (Form C) (obtained in Example 7), a crystalline form of the acetic acid solvate of the mesylate of the carboxamide (Form I) (obtained in Example 10) and a crystalline form of the esylate of the carboxamide (Form β) (obtained in Example 12) were measured under the following conditions.
1. Storage Conditions for the Hygroscopicity Test (Period: 1 Week)
a-1. 25° C., relative humidity 75%
b-1. 25° C., relative humidity 93%
Analysis was carried out according to “X-Ray Powder Diffraction Method” described in Japanese Pharmacopoeia 14th Edition, General Tests (B-614 to 619) under the following measurement conditions. • Apparatus: RINT-2000 (manufacture by Rigaku Denki K. K.) • X-ray: CuKα ray • Monochrometer: curved crystal monochrometer • Goniometer: vertical goniometer • Counter: scintillation counter • Applied voltage: 40 kV • Charging current: 200 mA • Scan speed: 5°/min • Scan axis: 2θ/θ • Scan range; 2θ+5° to 40° • Divergent slit: 0.5° • Scattering slit: 0.5° • Receiving slit: 0.3 mm 5. Measurement of Water Content
Measurement was carried out according to the Water Determination as described in Japanese Pharmacopoeia 14th Edition, General Tests (B-318 to 331) using 6 to 10 mg of each crystal.

The mark [4] stands for this setting: a-2: −20° C. (well closed), 2 weeks.
Setting [5] is: b-2: 25° C., light irradiation 1000 lx, shading with aluminum foil, well closed, 2 weeks.
The mark [6] stands for this setting: c-2: 25° C., light irradiation 1000 lx, well closed, 2 weeks.
The mark [7] stands for this setting: d-2: 40° C., relative humidity 75%, 2 weeks.
The mark [8] stands for this setting: e-2: 60° C., 2 weeks (well closed; slightly open for Form I).
[9] abbreviates: solid stability test, initial, HPLC relative area.
Setting [10] is: a-1: 25° C., relative humidity 75%, 1 week.
Where [11] appears, read: b-1: 25° C., relative humidity 93%, 1 week.

Regarding `CCS(=O)(=O)O.COc1cc2nccc(Oc3ccc(NC(=O)NC4CC4)c(Cl)c3)c2cc1C(N)=O` [esylate (Form β), Ethanesulfonate of 4-(3-chloro-4-(cyclopropylaminocarbonyl)aminophenoxy)-7-methoxy-6-quinolinecarboxamide], the crystal form entry was “β” in series [1] (setting [4]); “β” in series [1] (setting [5]); “β” in series [1] (setting [6]); “β” in series [1] (setting [7]); “β” in series [1] (setting [8]); “β” in series [1] (solid stability test, initial, powder X-ray diffraction). The crystal form entry is on record as “β” in series [3] (setting [10]); “β” in series [3] (setting [11]); “β” in series [3] (hygroscopicity test, initial). Besides, the total impurity in series [1] (setting [4]) worked out at 0.48%; in series [1] (setting [5]) it was 0.46%; in series [1] (setting [6]), 0.49%; in series [1] (setting [7]), 0.48%; in series [1] (setting [8]), 0.51%; in series [1] (setting [9]), 0.55%. In addition, the water content in series [1] (setting [4]) was 2.0%; in series [1] (setting [5]) it was 2.5%; in series [1] (setting [6]), 2.1%; in series [1] (setting [7]), 2.0%; in series [1] (setting [8]), 2.2%; in series [1] (solid stability test, initial) it was 1.7%. Further, the water content in series [3] (setting [10]) was determined as 1.7%; in series [3] (setting [11]), 1.4%; in series [3] (hygroscopicity test, initial), 1.7%. Besides, the “changes in water content and appearance, crystal transition” value in series [1] (solid stability test, 2 weeks) was “neither remarkable changes in water content and appearance nor crystal transition was observed”. This molecule also registered a dissolution rate in series [2] of 18.5 μg/min/cm^2. The “change in appearance and crystal transition” value in series [3] (1 week) was “Neither remarkable change in appearance nor crystal transition was observed”. In series [3] (1 week), the “change of water content” value is “did not change remarkably”. For the same molecule, the hygroscopicity entry in series [3] (1 week) was “not observed”.

On to `CC(=O)O.COc1cc2nccc(Oc3ccc(NC(=O)NC4CC4)c(Cl)c3)c2cc1C(N)=O.CS(=O)(=O)O` [Acetic Acid Solvate of the Methanesulfonate of 4-(3-chloro-4-(cyclopropylaminocarbonyl)aminophenoxy)-7-methoxy-6-quinolinecarboxamide], for which the crystal transition result in series [1] (40° C. and relative humidity of 75%, 2 weeks) is “transition to a crystalline form of the mesylate (Form C)”; in series [1] (60° C. in a slightly opened container, 2 weeks), “transition to a crystalline form of the mesylate (Form B)”. Moreover, the total impurity in series [1] (setting [4]) came out at 0.67%; in series [1] (setting [5]), 0.66%; in series [1] (setting [6]) it was 0.87%; in series [1] (setting [7]), 0.61%; in series [1] (setting [8]) it was 0.84%; in series [1] (setting [9]), 0.62%. Also, the water content in series [1] (setting [4]) was 3.1%; in series [1] (setting [5]), 3.1%; in series [1] (setting [6]) it was 2.9%; in series [1] (setting [7]) it was 0.9%; in series [1] (setting [8]) it was 0.3%; in series [1] (solid stability test, initial), 2.9%. The water content in series [3] (setting [10]) is recorded as 0.6%; in series [3] (setting [11]), 0.8%; in series [3] (hygroscopicity test, initial), 2.9%. Moreover, the “crystal transition, changes in total impurity amount, water content and appearance” value in series [1] (stored in a well closed container, 2 weeks) was “neither crystal transition nor remarkable changes in total impurity amount, water content and appearance were observed”. The “change in appearance and crystal transition” value in series [3] (1 week) is reported as “transition to a crystalline form of the mesylate (Form C)”. Further, in series [3] (1 week), the “change of water content” value is listed as “a decrease in water content was observed”.

Consider `COc1cc2nccc(Oc3ccc(NC(=O)NC4CC4)c(Cl)c3)c2cc1C(N)=O.CS(=O)(=O)O` [mesylate (Form C), Methanesulfonate of 4-(3-chloro-4-(cyclopropylaminocarbonyl)aminophenoxy)-7-methoxy-6-quinolinecarboxamide], for which the total impurity in series [1] (setting [4]) worked out at 2.10%; in series [1] (setting [5]) it was 2.09%; in series [1] (setting [6]), 2.22%; in series [1] (setting [7]) it was 2.06%; in series [1] (setting [8]), 2.18%; in series [1] (setting [9]), 2.11%. For the same molecule, the water content in series [1] (setting [4]) amounted to 0.7%; in series [1] (setting [5]) it was 0.8%; in series [1] (setting [6]), 0.7%; in series [1] (setting [7]) it was 0.6%; in series [1] (setting [8]), 0.5%; in series [1] (solid stability test, initial) it was 0.7%. Besides, the water content in series [3] (setting [10]) came out at 0.6%; in series [3] (setting [11]), 0.7%; in series [3] (hygroscopicity test, initial) it was 0.7%. For the same molecule, the “changes in water content and appearance, crystal transition” value in series [1] (solid stability test, 2 weeks) was “neither remarkable changes in water content and appearance nor crystal transition was observed”. This molecule yielded a dissolution rate in series [2] of 15.5 μg/min/cm^2. Further, the “change in appearance and crystal transition” value in series [3] (1 week) is “Neither remarkable change in appearance nor crystal transition was observed”. For the same molecule, in series [3] (1 week), the “change of water content” value was “did not change remarkably”. Further, the hygroscopicity entry in series [3] (1 week) is “not observed”.

`COc1cc2nccc(Oc3ccc(NC(=O)NC4CC4)c(Cl)c3)c2cc1C(N)=O.Cl` [hydrochloride, Hydrochloride of 4-(3-chloro-4-(cyclopropylaminocarbonyl)aminophenoxy)-7-methoxy-6-quinolinecarboxamide] yielded a dissolution rate in series [2] of 4.7 μg/min/cm^2.
